{"source": "patent US20120107820A1", "about": "“Multiplexed Quantitative PCR End Point Analysis of Nucleic Acid Targets” (MASSACHUSETTS INSTITUTE OF TECHNOLOGY, priority 2009, published 2012)", "key": {"[1]": {"tested_on": "HL60 (human promyelocytic leukemia) cells", "assay": "Gene expression profiling of tretinoin-treated HL60 cells, LMA RT-PCR amplicons detected on encoded hydrogel particles", "format": "cell-based", "details": "for Raw Signal (AU) / Differential Expression: log(tret/DMSO): HL60 cells; for Raw Signal (AU): 1 μmol/l tretinoin, five days; for Normalized Signal: normalized to LUA95, tretinoin-treated HL60 cells; for Differential Expression: log(tret/DMSO): tretinoin vs DMSO", "procedure": "(§1) Gene expression profiling experiment were conducted to detect and quantify the effects of drug treatment on expression of certain target mRNAs in a complex sample using hydrogel particles. Applicants repeated previously reported multiplex ligation-mediated PCR experiments that used Luminex FlexMAP (Luminex, Austin, Tex., USA) optically addressed barcoded microspheres in side by side experiments with hydrogel particles using an endogenous reference gene for quantification. The methods used are described in Peck et al. A Method for High-Throughput Gene Expression Signature Analysis, Genome Biology, 7:R61, 2006; details are set forth in Example 3. Although the Peck et al experiments were done with traditional RT-PCR and hybridization in multiple steps, the experiments are amendable to embodiments of the present methods for one chamber quantitative multiplexed end point PCR.\n(§2) HL60 (human promyelocytic leukemia) cells were cultured in the presence of either […] in DMSO or DMSO alone, and quantification was based on comparison of target mRNA expression to the reference gene […]. […] Upstream and downstream probe pairs designed for each of the targets by Peck were used to generate the amplicons. Unique upstream biotin-conjugated primers for each target included a 24 nucleotide bar code sequence for each of the five mRNAs. Applicants designed probes for immobilization on encoded hydrogel particles that were complementary to the 24 nucleotide bar code on each unique upstream primer to enable capture of the amplicons on encoded hydrogel particles. Methods for making the particles are described in Example 3. Each encoded hydrogel particle was made with multiple probe regions directed to each of the five mRNAs (four targets and one reference gene) and a control, respectively.\n(§3) Total RNA was isolated from the HL60 cells, reverse-transcribed and amplified using a simple RT-PCR method. In order to compare the sensitivity of the encoded hydrogel particles to the Luminex magnetic particles, the exact protocol described by Peck et al. was followed. There were 39 cycles in which: there was an initial denaturation at 92° C. for 9 minutes, followed by denaturation at 92° C. for 30 s, followed by annealing at 60° C. for 30 s, extension at 72° C. for 30 s for 39 cycles, and a final extension at 72° C. for 5 minutes. After a final denaturation at 95° C. for two minutes hybridization was carried out at 45° C. for 60 minutes. Note that in the preferred embodiments of the present invention the hybridization temperature is from 2-15° C. […] than the primer annealing temperature to optimize specificity. By contrast, the hybridization temperature (45° C.) used by Peck et al. was 15° C. lower than the annealing temperature.\n(§4) After hybridization, the respective Luminex and hydrogel particles were rinsed, incubated with streptavidin-phycoerythrin to fluorescently label the primers, rinsed again, and imaged for fluorescence. The fluorescent signals obtained were quantified and normalized against the internal reference (LUA95) after subtracting the background signal from the control region on each particle (CTL).\n(§5) Similar to the protocol described in Peck et al., Genome Biology, 7:R61, 2006, HL60 (human promyelocytic leukemia) cells were cultured in RPMI supplemented with 10% fetal bovine serum and antibiotics. Cells were treated with 1 μmol/l tretinoin (all-trans retinoic acid; Sigma-Aldrich, St Louis, Mo., USA) in dimethyl sulfoxide (DMSO; final concentration 0.1%) or DMSO alone for five days. Total RNA was isolated from bulk cultures with TRIzol Reagent (Invitrogen, Carlsbad, Calif., USA), in accordance with the manufacturer's directions. For the classification exercise, microtiter plate cultures were treated with 200 nmol/l tretinoin or DMSO for two days to mimic the submaximal signatures likely to be encountered in a small molecule screen, and were and prepared for mRNA capture by the addition of Lysis Buffer (RNAture, Irvine, Calif., USA). […]"}, "[2]": {"tested_on": "HL60 (human promyelocytic leukemia) cells", "assay": "Gene expression profiling of tretinoin-treated HL60 cells, LMA RT-PCR amplicons detected on Luminex microspheres", "format": "cell-based", "details": "for Raw Signal (AU) / Differential Expression: log(tret/DMSO): HL60 cells; for Raw Signal (AU): 1 μmol/l tretinoin, five days; for Normalized Signal: normalized to LUA95, tretinoin-treated HL60 cells; for Differential Expression: log(tret/DMSO): tretinoin vs DMSO", "procedure": "as §1, §2, §3, §4, §5"}, "[3]": {"details": "LUA95 (GAPDH3 internal reference, NM_002046)"}}, "data": [{"smiles": "CC1=C(/C=C/C(C)=C/C=C/C(C)=C/C(=O)O)C(C)(C)CCC1", "note": "[tretinoin]", "values": [{"measurement": "Raw Signal (AU)", "setting": "[1]; LUA7 mRNA (NM_000962)", "result": 7.44, "unit": "AU"}, {"measurement": "Normalized Signal", "setting": "[1]; LUA7 mRNA (NM_000962)", "result": 0.084}, {"measurement": "Differential Expression: log(tret/DMSO)", "setting": "[1]; LUA7 mRNA (NM_000962)", "result": 0.486}, {"measurement": "Raw Signal (AU)", "setting": "[1]; LUA27 mRNA (NM_006432)", "result": 14.64, "unit": "AU"}, {"measurement": "Normalized Signal", "setting": "[1]; LUA27 mRNA (NM_006432)", "result": 0.166}, {"measurement": "Differential Expression: log(tret/DMSO)", "setting": "[1]; LUA27 mRNA (NM_006432)", "result": 0.818}, {"measurement": "Raw Signal (AU)", "setting": "[1]; LUA59 mRNA (NM_004095)", "result": 1.14, "unit": "AU"}, {"measurement": "Normalized Signal", "setting": "[1]; LUA59 mRNA (NM_004095)", "result": 0.013}, {"measurement": "Differential Expression: log(tret/DMSO)", "setting": "[1]; LUA59 mRNA (NM_004095)", "result": "−0.841"}, {"measurement": "Raw Signal (AU)", "setting": "[1]; LUA68 mRNA (NM_003132)", "result": 2.99, "unit": "AU"}, {"measurement": "Normalized Signal", "setting": "[1]; LUA68 mRNA (NM_003132)", "result": 0.034}, {"measurement": "Differential Expression: log(tret/DMSO)", "setting": "[1]; LUA68 mRNA (NM_003132)", "result": "−0.822"}, {"measurement": "Raw Signal (AU)", "setting": "[1]; [3]", "result": 88.45, "unit": "AU"}, {"measurement": "Raw Signal (AU)", "setting": "[2]; LUA7 mRNA (NM_000962)", "result": 389.3, "unit": "AU"}, {"measurement": "Normalized Signal", "setting": "[2]; LUA7 mRNA (NM_000962)", "result": 0.222}, {"measurement": "Differential Expression: log(tret/DMSO)", "setting": "[2]; LUA7 mRNA (NM_000962)", "result": 0.785}, {"measurement": "Raw Signal (AU)", "setting": "[2]; LUA27 mRNA (NM_006432)", "result": 775.5, "unit": "AU"}, {"measurement": "Normalized Signal", "setting": "[2]; LUA27 mRNA (NM_006432)", "result": 0.442}, {"measurement": "Differential Expression: log(tret/DMSO)", "setting": "[2]; LUA27 mRNA (NM_006432)", "result": 0.871}, {"measurement": "Raw Signal (AU)", "setting": "[2]; LUA59 mRNA (NM_004095)", "result": 100.3, "unit": "AU"}, {"measurement": "Normalized Signal", "setting": "[2]; LUA59 mRNA (NM_004095)", "result": 0.057}, {"measurement": "Differential Expression: log(tret/DMSO)", "setting": "[2]; LUA59 mRNA (NM_004095)", "result": "−0.576"}, {"measurement": "Raw Signal (AU)", "setting": "[2]; LUA68 mRNA (NM_003132)", "result": 178.0, "unit": "AU"}, {"measurement": "Normalized Signal", "setting": "[2]; LUA68 mRNA (NM_003132)", "result": 0.101}, {"measurement": "Differential Expression: log(tret/DMSO)", "setting": "[2]; LUA68 mRNA (NM_003132)", "result": "−0.619"}, {"measurement": "Raw Signal (AU)", "setting": "[2]; [3]", "result": 1754.4, "unit": "AU"}]}]}
